Experimental data as given in patent US12209261B2, “Media for the expression of recombinant vitamin K-dependent proteins” (CSL Behring Lengnau AG, priority 2015, dated 2025).

How the values were obtained:
[1] = test system: CHO cells expressing FVII; experiment: Determination of cell growth and viability (viable cell density, flow cytometry with propidium iodide); format: cell-based, Chinese Hamster; conditions: for impact on viable cell density (VCD): summary in description, supplement present in cell culture medium, FIGS. 1A-8A
Description: (§1) Chinese Hamster Ovary cell line that expresses recombinant human Factor VII fusion protein was created using the GS expression system (Lonza). These cells were maintained in commercially available CD-CHO AGT medium (Invitrogen) supplemented with 50 μg/L reduced menadione sodium bisulfite (rMSB) (Richman), 25 μM methionine sulfoximine (MSX) (Sigma) and 1 mg/L insulin (Novo Nordisk). Cells were grown in shake flasks maintained at 37° C. with 8% CO2 atmosphere and subcultured every 3 days to 3×10^5 cells/mL.
Cells from the exponential growth phase of the cultures (at the end of regular 3-day passages) were used for the experiments. The cells were centrifuged, appropriate amount of spent media removed and cell pellets were resuspended in remaining spent media to a cell concentration of 3×10^6 cells/mL. 50 μL of this cell suspension was used to inoculate each well of a polypropylene V-bottom square 96-deepwell plate (Corning) containing 450 μL of a cell culture media based on DMEM/F12 supplemented with different levels of reduced L-glutathione (Sigma). The reduced L-glutathione concentration ranges tested were 0.01-15 mM with a corresponding reduced L-glutathione-free negative control. All cultures contained 213 μg/L rMSB to support appropriate cellular processing of Factor VII. All liquid handling steps were performed using a Tecan Freedom EVO® 200 robotic platform.
(§2) Culture plates were sealed with a breathable membrane (Corning) to maintain sterility and cultures were maintained at 37° C. with 8% CO2 atmosphere in a shaker incubator (Kuhner) operating at 350 rpm with an oribital diameter of 25 mm.
The cell density and viability in the culture were determined offline from a sample of culture obtained at day 5 and day 7 (counted from inoculation of the culture) using a MACSQuant® Analyzer 10 flow cytometer (Miltenyi Biotec), utilizing propidium iodide (Miltenyi Biotec) for viability staining. […]
The cell density and viability were determined as described for Example 1.

[2] = test system: recombinant human Factor VII fusion protein; experiment: Recombinant Factor VII chromogenic activity in culture supernatants (COASET Factor VII kit); format: cell-based; conditions: for effect on chromogenic activity of FVII: supernatant at days 7, 9 and 10; for impact on yield and/or activity of FVII: summary in description, supplement present in cell culture medium during FVII expression, FIGS. 1B-8C
Description: as §1
Cells from the exponential growth phase of the cultures (at the end of regular 3-day passages) were used for the experiments. The cells were centrifuged, appropriate amount of spent media removed and cell pellets were resuspended in remaining spent media to a cell concentration of 3×10^6 cells/mL. 50 μL of this cell suspension was used to inoculate each well of a polypropylene V-bottom square 96-deepwell plate (Corning) containing 450 μL of a cell culture media based on DMEM/F12 supplemented with different levels of reduced L-glutathione (Sigma). […] All cultures contained 213 μg/L rMSB to support appropriate cellular processing of Factor VII. All liquid handling steps were performed using a Tecan Freedom EVO® 200 robotic platform.
as §2
Recombinant Factor VII chromogenic activity in the cultures were determined from serially diluted supernatant samples obtained at days 7, 9 and 10 (counted from inoculation of the culture) using a commercially available chromogenic kit COASET Factor VII kit (Chromogenix). The assay was adapted for use with the SYSMEX® CS-5100 automated hemostasis analyzer (Siemens Healthcare) and performed according to manufacturers' instructions.
Cells from the exponential growth phase of the cultures (at the end of regular 3-day passages) were used for the experiments. The cells were centrifuged, appropriate amount of spent media removed and cell pellets were resuspended in remaining spent media to a cell concentration of 3×10^6 cells/mL. 50 μL of this cell suspension was used to inoculate each well of a polypropylene V-bottom square 96-deepwell plate (Corning) containing 450 μL of a cell culture media based on DMEM/F12 supplemented with different levels of alpha-ketoglutaric acid (Sigma), malic acid (Sigma), succinic acid (Sigma), oxaloacetic acid (Sigma), fumaric acid (Sigma), citric acid (Sigma) or sodium pyruvate (Sigma). […]
Recombinant Factor VII chromogenic activity in the cultures was determined as described for Example 1.

| SMILES | effect on viable cell density ([1]; Example 1, reduced L-glutathione 0.01-15 mM in DMEM/F12-based medium, day 5 and day 7, at most concentrations tested, FIG. 1A) | impact on viable cell density (VCD) [1] | effect on chromogenic activity of FVII ([2]; Example 1, reduced L-glutathione 0.01-15 mM, FIGS. 1B and 1C) | impact on yield and/or activity of FVII [2] | effect on chromogenic activity of FVII ([2]; Example 2, TCA intermediates 0.06-60 mM, sodium pyruvate 0.01-10 mM, FIGS. 2B-8C) |
| --- | --- | --- | --- | --- | --- |
| N[C@@H](CCC(=O)N[C@@H](CS)C(=O)NCC(=O)O)C(=O)O [L-glutathione, (2S)-2-amino-5-[[(2R)-1-(carboxymethylamino)-1-oxo-3-sulfanylpropan-2-yl]amino]-5-oxopentanoic acid] | no effect on the viable cell density | only minor impact on the viable cell density | increases chromogenic activity of FVII | enhances yield and/or activity of FVII |  |
| CC(=O)C(=O)[O-].[Na+] [Sodium pyruvate, sodium pyruvate, reference compound] |  | only minor impact on the viable cell density |  | no impact on yield and/or activity of FVII | no effect on the chromogenic activity of FVII |
